Measurements from PMC4549706, “Rational Design of Highly Potent and Slow-Binding Cytochrome bc1 Inhibitor as Fungicide by Computational Substitution Optimization” (Scientific Reports, 2015).
Where two headings read alike, the source gives them in different places.

Assays:
[1] = test system: Pseudoperonospora cubensis (Berk. et Curt.); experiment: In vivo fungus growth inhibitory rate at 200 mg/L, downy mildew
Method: (§1) [a] Compounds are named as “series number-site number plus substitution group number” a: -F, b: -Cl, c:
(§2) -Br, d: -NO2, e: -CH3, f: -CF3, g: -OCH3, h: -OH, i: -NH2, j: -COOH.
(§3) [b] Substitution number and group.
(§4) [c] CH is “series 1” and N is “series 2”. […]
(§5) Table S2 Fungus growth inhibitory rate of target compounds (200 mg/L).
(§6) Comp. No. R X Sphaerotheca fuliginea Pseudoperonospora cubensis

P. cubensis = experiment: Field trial, cucumber naturally infected, downy mildew; format: in vivo, Pseudoperonospora cubensis; conditions: 7th day
Method: (§7) To further study the potential of compound 18 against powdery mildew and downy mildew, field experiments were conducted during the growing season of summer squash and cucumber. The summer squash plants at a fruiting stage naturally infected by S. fuliginea were used. […] Almost no lesions were observed on the leaves of summer squash. […] Lesions on the leaves of control plants, however, expanded quickly, and intense fungal hyphae could be observed. The curative effect is approximately 64.85% for the AZ-treated (93.75 g.ai/ha) summer squash. In addition, field trials for the treatment of downy mildew of cucumber were also performed. Cucumber plants naturally infected by P. cubensis were used for the study. Fungi on the leaves of control plants expanded quickly and lesions could be observed.
(§8) In the field trials, summer squash plants which is naturally infected by S. fuliginea and cucumber plants which is naturally infected by P. cubensis were used.
(§9) The disease index and control effect of compound 18 were calculated via the following […]
(§10) Disease index (%) = ∑(Ni × i)/(N × 9) × 100 […]
(§11) Each treatment took up in four plots and was distributed randomly in each […]eld. The relative control effects were assessed after the 7th day of foliar application 18. […]

[2] = biological target: T1, porcine succinate-cytochrome c reductase (SCR, the mixture of complex II and bc1) (Sus scrofa, UniProt P24964); conditions: previous data, cited from earlier work
T1 construct: T h e S C R f r o m p o r c i n e h e a r t; from tissue; host or cells: porcine heart

[3] = test system: Sphaerotheca fuliginea (Schlecht.) Poll.; experiment: In vivo fungus growth inhibitory rate at 200 mg/L, powdery mildew
From the text: Based on the above in vitro study, compounds with nanomolar and subnanomolar Ki values were selected from the total 21 newly synthezised compounds for further studies. Pesticide likeness, defined as a complex balance of various physicochemical properties and structure features, can evaluate whether a molecule is similar to the known pesticides. After the filtration of pesticide likeness, seven compounds were kept to adhere to our previously defined rules for pesticide-likeness including molecular weight (MW) ≤ 435 Da, ClogP ≤ 6, number of H-bond acceptors (HBA) ≤ 6, number of H-bond donors (HBD) ≤ 2, number of rotatable bonds (ROB) ≤ 9, and number of aromatic bonds (ARB) ≤ 17 (Table 1)[24]. […] Therefore, compound 18 was recognized as lead compound for subsequent studies.
as §1, §2, §3, §4, §5, §6

S. fuliginea = experiment: Field trial, summer squash naturally infected, powdery mildew; format: in vivo, Sphaerotheca fuliginea
Method: as §7, §8, §9, §10, §11

T1 sequence (P24964 whole entry, one chain of several): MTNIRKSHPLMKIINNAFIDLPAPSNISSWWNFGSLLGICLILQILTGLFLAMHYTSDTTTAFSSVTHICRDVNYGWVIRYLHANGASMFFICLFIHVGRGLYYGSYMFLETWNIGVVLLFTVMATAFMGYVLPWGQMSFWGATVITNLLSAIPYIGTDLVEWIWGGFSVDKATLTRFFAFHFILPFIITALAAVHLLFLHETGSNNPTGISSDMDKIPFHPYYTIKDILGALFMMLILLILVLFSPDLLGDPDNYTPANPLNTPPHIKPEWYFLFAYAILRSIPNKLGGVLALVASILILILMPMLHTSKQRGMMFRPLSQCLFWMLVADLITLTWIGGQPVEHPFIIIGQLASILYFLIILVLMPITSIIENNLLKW

Row | SMILES | Fungus growth inhibitory rate, Pseudoperonospora cubensis [1] | curative effect, downy mildew (P. cubensis) (P. cubensis; 75 g.ai/ha) [%] | Ki ([2]; inhibition of SCR activity) [nM] | inhibition type with respect to cytochrome c [2] | Fungus growth inhibitory rate, Sphaerotheca fuliginea [3] | Fungus growth inhibitory rate, Sphaerotheca fuliginea ([3]; listed as Comp. 18) [%] | Fungus growth inhibitory rate, Pseudoperonospora cubensis ([1]; listed as Comp. 18) [%] | curative effect, powdery mildew (S. fuliginea) (S. fuliginea; 37.5 g.ai/ha, 7th day) | curative effect, powdery mildew (S. fuliginea) (S. fuliginea; 75 g.ai/ha, 7th day after foliar application) [%] | curative effect, downy mildew (P. cubensis) (P. cubensis; 60 g.ai/ha)
1 | CO/C=C(/C(=O)OC)c1ccccc1Oc1cc(Oc2ccccc2C#N)ncn1 [AZ, Azoxystrobin, reference compound] | 94% | 59.59 | 298 | non-competitive |  |  |  |  |  | 
2 | COC=C(C(=O)OC)c1ccccc1CSc1nc2cc(OC)ccc2s1 [Compound 18] | completely inhibited |  |  |  | completely inhibited | 100 | 100 | approximately 70.92% | 74.60 | approximately 82.59%
